Measured values published in publication PMC6210068 (ACS Omega, 2018).

Experiments:
[1] = target: DOR (Homo sapiens, UniProt P41143); assay: Radioligand binding at DOR
[2] = target: rat kidney TSPO (Rattus norvegicus, UniProt P16257); assay: Radioligand binding at TSPO; conditions: for Ki: TSPO, rat TSPO, [3H]PK11195
[3] = target: hDAT (Homo sapiens, UniProt Q01959); assay: Radioligand binding at DAT; conditions: 10 μM; [3H]WIN35428; negative = enhanced radioligand binding
[4] = target: MOR (Homo sapiens, UniProt P35372); assay: biochemical; type: binding
MOR, sequence (P35372 whole entry): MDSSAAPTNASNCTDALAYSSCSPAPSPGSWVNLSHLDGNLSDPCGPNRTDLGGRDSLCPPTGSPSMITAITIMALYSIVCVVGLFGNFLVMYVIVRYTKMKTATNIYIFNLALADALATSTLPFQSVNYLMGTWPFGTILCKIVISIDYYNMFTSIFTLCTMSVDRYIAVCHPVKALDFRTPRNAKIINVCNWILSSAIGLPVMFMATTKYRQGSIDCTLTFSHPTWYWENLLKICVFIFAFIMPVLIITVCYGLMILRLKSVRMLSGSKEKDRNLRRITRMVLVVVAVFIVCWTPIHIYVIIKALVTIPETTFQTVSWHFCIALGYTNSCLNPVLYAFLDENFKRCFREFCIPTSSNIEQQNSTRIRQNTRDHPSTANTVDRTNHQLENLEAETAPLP

[5] = target: T1, hA3AR (Homo sapiens, UniProt P0DMS8); assay: A3AR binding
T1 sequence (P0DMS8 1-318): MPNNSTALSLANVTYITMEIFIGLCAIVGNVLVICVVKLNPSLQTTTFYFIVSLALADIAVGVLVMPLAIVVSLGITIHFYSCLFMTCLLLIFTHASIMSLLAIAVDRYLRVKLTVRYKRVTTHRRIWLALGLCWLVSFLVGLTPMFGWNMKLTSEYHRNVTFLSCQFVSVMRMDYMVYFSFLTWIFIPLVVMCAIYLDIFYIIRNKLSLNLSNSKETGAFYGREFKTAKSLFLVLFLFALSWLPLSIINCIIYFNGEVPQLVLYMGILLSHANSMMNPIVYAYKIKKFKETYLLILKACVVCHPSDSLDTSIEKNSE

[6] = target: KOR (Homo sapiens, UniProt P41145); assay: biochemical; type: binding; conditions: for Ki: KOR, [3H]U69593, mean ± SEM, N = 2–4
KOR, sequence (P41145 whole entry): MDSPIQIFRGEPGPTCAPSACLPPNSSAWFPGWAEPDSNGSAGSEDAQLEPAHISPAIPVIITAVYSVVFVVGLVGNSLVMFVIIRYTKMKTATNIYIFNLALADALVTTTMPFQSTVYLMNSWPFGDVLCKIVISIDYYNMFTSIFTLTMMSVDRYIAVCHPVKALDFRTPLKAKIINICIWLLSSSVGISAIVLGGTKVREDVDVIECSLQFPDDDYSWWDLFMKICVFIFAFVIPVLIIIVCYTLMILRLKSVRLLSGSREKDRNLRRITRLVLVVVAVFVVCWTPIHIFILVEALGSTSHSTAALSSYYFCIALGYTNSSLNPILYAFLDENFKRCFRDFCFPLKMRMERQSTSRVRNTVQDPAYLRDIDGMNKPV

hDAT, sequence (Q01959 whole entry): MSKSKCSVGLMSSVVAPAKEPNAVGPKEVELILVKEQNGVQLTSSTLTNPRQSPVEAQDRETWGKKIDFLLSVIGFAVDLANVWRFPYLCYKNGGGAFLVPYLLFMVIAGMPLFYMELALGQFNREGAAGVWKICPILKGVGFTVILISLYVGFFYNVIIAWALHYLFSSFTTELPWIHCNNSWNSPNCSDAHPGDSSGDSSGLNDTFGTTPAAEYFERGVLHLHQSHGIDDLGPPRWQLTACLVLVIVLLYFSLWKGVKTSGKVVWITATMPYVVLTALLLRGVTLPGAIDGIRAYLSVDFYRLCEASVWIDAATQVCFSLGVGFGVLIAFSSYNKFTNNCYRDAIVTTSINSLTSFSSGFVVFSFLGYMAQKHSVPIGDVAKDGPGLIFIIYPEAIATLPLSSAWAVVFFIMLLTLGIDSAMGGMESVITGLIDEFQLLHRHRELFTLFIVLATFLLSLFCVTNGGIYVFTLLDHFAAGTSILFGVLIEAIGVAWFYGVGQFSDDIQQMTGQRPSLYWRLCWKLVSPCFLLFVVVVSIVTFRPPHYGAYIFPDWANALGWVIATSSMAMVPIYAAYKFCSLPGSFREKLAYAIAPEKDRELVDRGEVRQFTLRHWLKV
rat kidney TSPO, sequence (P16257 whole entry): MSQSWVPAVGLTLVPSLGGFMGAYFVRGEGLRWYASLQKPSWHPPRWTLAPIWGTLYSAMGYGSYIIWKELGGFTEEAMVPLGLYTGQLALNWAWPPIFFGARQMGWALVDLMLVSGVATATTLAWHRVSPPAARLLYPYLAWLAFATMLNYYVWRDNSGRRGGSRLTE
DOR, sequence (P41143 whole entry): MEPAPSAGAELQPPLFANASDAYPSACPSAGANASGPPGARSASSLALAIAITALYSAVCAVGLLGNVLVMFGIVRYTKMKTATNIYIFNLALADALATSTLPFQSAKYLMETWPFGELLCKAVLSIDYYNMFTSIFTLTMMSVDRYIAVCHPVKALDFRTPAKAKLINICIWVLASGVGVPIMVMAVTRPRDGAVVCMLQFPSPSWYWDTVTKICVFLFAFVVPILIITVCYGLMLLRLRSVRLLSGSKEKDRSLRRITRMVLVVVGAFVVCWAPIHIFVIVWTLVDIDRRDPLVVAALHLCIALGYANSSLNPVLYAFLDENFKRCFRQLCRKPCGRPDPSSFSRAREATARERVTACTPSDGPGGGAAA

## O[C@@H]1[C@H](O)[C@@H]2C[C@@H]2[C@H]1n1cnc2c(NCC(c3ccccc3)c3ccccc3)nc(C#Cc3ccccc3)nc21 [compound 53]
[1]; Table 4
  DOR, inhibition of radioligand binding at 10 μM (class): ^g (<30% inhibition of radioligand binding at 10 μM)
[2]
  Ki: 3.57 ± 1.82 µM
[3]
  DAT, inhibition, % of control at 10 μM: 17%

## CCOC(=O)[C@@]12C[C@@H]1[C@@H](n1ccc3c(NCCc4ccccc4)nc(C#Cc4ccccc4)nc31)[C@@H]1OC(C)(C)O[C@@H]12 [compound 82, Ethyl(3aR,3bS,4aS,5R,5aS)-2,2-dimethyl-5-(4-(phenethylamino)-2-(phenylethynyl)-7H-pyrrolo[2,3-d]pyrimidin-7-yl)tetrahydrocyclopropa[3,4]cyclopenta[1,2-d][1,3]dioxole-3b(3aH)-carboxylate]
[1]
  Ki: 881 ± 158 nM
[4]
  Ki: > 10 µM
[5]
  Ki: 905 ± 144 nM
[2]
  Ki: > 10 µM
[3]
  DAT, inhibition, % of control at 10 μM: –24%
[6]
  Ki: 217 ± 100 nM

## CNC(=O)[C@@]12C[C@@H]1[C@@H](n1cnc3c(NC)nc(C#Cc4ccc(Cl)s4)nc31)[C@H](O)[C@@H]2O [compound 14]
[1]; Table 1
  DOR, inhibition of radioligand binding at 10 μM (class): ^e (30–50% inhibition of radioligand binding at 10 μM)
[2]
  Ki: 0.684 ± 0.175 µM

## CNC(=O)[C@H]1O[C@@H](n2cnc3c(NC)nc(C#Cc4ccc(Cl)s4)nc32)[C@H](O)[C@@H]1O [compound 45]
[3]
  DAT, inhibition, % of control at 10 μM: –321%
[6]; Table 3
  KOR, inhibition of radioligand binding at 10 μM (class): ^e (<30% inhibition of radioligand binding at 10 μM)

## CNc1nc(C#Cc2ccc(Cl)s2)nc2c1ncn2[C@H]1[C@H](O)[C@H](O)[C@]2(C(=O)OCCc3ccccc3)C[C@H]12 [compound 36]
[1]; Table 2
  DOR, inhibition of radioligand binding at 10 μM (class): ^d (<30% inhibition of radioligand binding at 10 μM)
[4]; Table 2
  MOR, inhibition of radioligand binding at 10 μM (class): ^d (<30% inhibition of radioligand binding at 10 μM)
[5]
  Ki: 114 ± 64 nM
[2]; Table 2
  TSPO, inhibition of radioligand binding at 10 μM (class): ^d (<30% inhibition of radioligand binding at 10 μM)
[3]
  DAT, inhibition, % of control at 10 μM: <20%
[6]
  Ki: 3670 ± 1640 nM

## CNC(=O)[C@@]12C[C@@H]1[C@@H](n1cnc3c(NCc4cccc(Cl)c4)nc(Cl)nc31)[C@H](O)[C@@H]2O [compound 5]
[1]; Table 1
  DOR, inhibition of radioligand binding at 10 μM (class): ^e (30–50% inhibition of radioligand binding at 10 μM)
[2]; Table 1
  TSPO, inhibition of radioligand binding at 10 μM (class): ^f (<30% inhibition of radioligand binding at 10 μM)
[3]
  DAT, inhibition, % of control at 10 μM: 3%

## CNC(=O)[C@@]12C[C@@H]1[C@@H](n1ccc3c(NC)ncnc31)[C@H](O)[C@@H]2O [compound 17]
[1]; Table 1
  DOR, inhibition of radioligand binding at 10 μM (class): ^e (30–50% inhibition of radioligand binding at 10 μM)
[5]
  Ki: 498 ± 46 nM
[2]; Table 1
  TSPO, inhibition of radioligand binding at 10 μM (class): ^e (30–50% inhibition of radioligand binding at 10 μM)
[3]
  DAT, inhibition, % of control at 10 μM: –14%

## CNC(=O)[C@@]12C[C@@H]1[C@@H](n1cnc3c(NCc4cccc(Cl)c4)nc(C#Cc4ccccc4Cl)nc31)[C@H](O)[C@@H]2O [compound 8]
[1]; Table 1
  DOR, inhibition of radioligand binding at 10 μM (class): f (<30% inhibition of radioligand binding at 10 μM)
[2]
  Ki: ~0.3 µM
[3]
  DAT, inhibition, % of control at 10 μM: 50%

## CNC(=O)[C@@]12C[C@@H]1[C@@H](n1cnc3c(NC)cc(C#Cc4ccc(Cl)s4)nc31)[C@H](O)[C@@H]2O [compound 16]
[1]; Table 1
  DOR, inhibition of radioligand binding at 10 μM (class): ^e (30–50% inhibition of radioligand binding at 10 μM)
[2]; Table 1
  TSPO, inhibition of radioligand binding at 10 μM (class): ^e (30–50% inhibition of radioligand binding at 10 μM)
[3]
  DAT, inhibition, % of control at 10 μM: 1%

## CNC(=O)[C@@]12C[C@@H]1[C@@H](n1cnc3c(NC)nc(C#Cc4ccccc4)nc31)[C@H](O)[C@@H]2O [compound 12]
[1]; Table 1
  DOR, inhibition of radioligand binding at 10 μM (class): ^e (30–50% inhibition of radioligand binding at 10 μM)
[2]; Table 1
  TSPO, inhibition of radioligand binding at 10 μM (class): ^e (30–50% inhibition of radioligand binding at 10 μM)
[3]
  DAT, inhibition, % of control at 10 μM: –211%

## O[C@@H]1[C@H](O)[C@@H]2C[C@@H]2[C@H]1n1ccc2c(NC(C3CC3)C3CC3)nc(I)nc21 [compound 58, (1R,2R,3S,4R,5S)-4-(4-((Dicyclopropylmethyl)amino)-2-iodo-7H-pyrrolo[2,3-d]pyrimidin-7-yl)bicyclo[3.1.0]hexane-2,3-diol]
[1]; Table 5
  DOR, inhibition of radioligand binding at 10 μM (class): ^e (<30% inhibition of radioligand binding at 10 μM)
[4]; Table 5
  MOR, inhibition of radioligand binding at 10 μM (class): ^e (<30% inhibition of radioligand binding at 10 μM)
[5]
  Ki: 5310 ± 1310 nM
[2]; Table 5
  TSPO, inhibition of radioligand binding at 10 μM (class): ^e (<30% inhibition of radioligand binding at 10 μM)
[6]; Table 5
  KOR, inhibition of radioligand binding at 10 μM (class): ^e (<30% inhibition of radioligand binding at 10 μM)

## O[C@@H]1[C@H](O)[C@@H]2C[C@@H]2[C@H]1n1cnc2c(NCc3cccc(Cl)c3)ncnc21 [compound 48]
[1]; Table 4
  DOR, inhibition of radioligand binding at 10 μM (class): ^g (<30% inhibition of radioligand binding at 10 μM)
[2]; Table 4
  TSPO, inhibition of radioligand binding at 10 μM (class): ^g (<30% inhibition of radioligand binding at 10 μM)
[3]
  DAT, inhibition, % of control at 10 μM: –2%

## CNc1nc(C#Cc2ccc(Cl)s2)nc2c1ncn2[C@H]1[C@H](O)[C@H](O)[C@]2(C(=O)OC(C)C)C[C@H]12 [compound 31]
[1]; Table 2
  DOR, inhibition of radioligand binding at 10 μM (class): ^d (<30% inhibition of radioligand binding at 10 μM)
[4]; Table 2
  MOR, inhibition of radioligand binding at 10 μM (class): ^d (<30% inhibition of radioligand binding at 10 μM)
[2]; Table 2
  TSPO, inhibition of radioligand binding at 10 μM (class): ^d (<30% inhibition of radioligand binding at 10 μM)
[3]
  DAT, inhibition, % of control at 10 μM: <20%
[6]
  Ki: ~400 nM
[6]; Table 2
  KOR, inhibition of radioligand binding at 10 μM (class): ^d (<30% inhibition of radioligand binding at 10 μM)

## O[C@@H]1[C@H](O)[C@@H]2C[C@@H]2[C@H]1n1cnc2c(NCc3cccc(Cl)c3)nc(C#Cc3ccc(F)c(F)c3)nc21 [compound 3]
[1]; Table 4
  DOR, inhibition of radioligand binding at 10 μM (class): ^g (<30% inhibition of radioligand binding at 10 μM)
[3]
  DAT, inhibition, % of control at 10 μM: 16%

## CNc1nc(C#Cc2ccc(Cl)s2)nc2c1ncn2[C@H]1[C@H](O)[C@H](O)[C@]2(C(=O)O)C[C@H]12 [compound 38]
[1]; Table 2
  DOR, inhibition of radioligand binding at 10 μM (class): ^d (<30% inhibition of radioligand binding at 10 μM)
[4]; Table 2
  MOR, inhibition of radioligand binding at 10 μM (class): ^d (<30% inhibition of radioligand binding at 10 μM)
[2]; Table 2
  TSPO, inhibition of radioligand binding at 10 μM (class): ^d (<30% inhibition of radioligand binding at 10 μM)
[3]
  DAT, inhibition, % of control at 10 μM: –50%
[6]; Table 2
  KOR, inhibition of radioligand binding at 10 μM (class): ^d (<30% inhibition of radioligand binding at 10 μM)

## Ala2-MePhe4-Glyol5-Enkephalin [compound 99, reference compound]
[4]; read-out: radioligand Kd, MOR
  Kd: 1.73 ± 0.14 nM

## CCCCOC(=O)[C@@]12C[C@@H]1[C@@H](n1cnc3c(NC)nc(C#Cc4ccc(Cl)s4)nc31)[C@H](O)[C@@H]2O [compound 32]
[1]; Table 2
  DOR, inhibition of radioligand binding at 10 μM (class): ^d (<30% inhibition of radioligand binding at 10 μM)
[4]; Table 2
  MOR, inhibition of radioligand binding at 10 μM (class): ^d (<30% inhibition of radioligand binding at 10 μM)
[2]
  Ki: > 10 µM
[3]
  DAT, inhibition, % of control at 10 μM: –285%
[6]
  Ki: 1210 ± 100 nM

## CNC(=O)[C@@]12C[C@@H]1[C@@H](n1cnc3c(NC)nc(C#Cc4ccc(F)c(F)c4)nc31)[C@H](O)[C@@H]2O [compound 11]
[1]; Table 1
  DOR, inhibition of radioligand binding at 10 μM (class): ^e (30–50% inhibition of radioligand binding at 10 μM)
[2]; Table 1
  TSPO, inhibition of radioligand binding at 10 μM (class): ^e (30–50% inhibition of radioligand binding at 10 μM)
[3]
  DAT, inhibition, % of control at 10 μM: –322%

## CNc1nc(C#Cc2ccccc2)nc2c1ncn2[C@H]1[C@H](O)[C@H](O)[C@@H]2C[C@@H]21 [compound 49]
[1]; Table 4
  DOR, inhibition of radioligand binding at 10 μM (class): ^g (<30% inhibition of radioligand binding at 10 μM)
[2]; Table 4
  TSPO, inhibition of radioligand binding at 10 μM (class): ^f (30–50% inhibition of radioligand binding at 10 μM)
[3]
  DAT, inhibition, % of control at 10 μM: –213%

## CNc1nc(C#Cc2ccc(Cl)s2)nc2c1ncn2[C@H]1[C@H](O)[C@H](O)[C@]2(C(=O)OCCC(C)C)C[C@H]12 [compound 33]
[1]; Table 2
  DOR, inhibition of radioligand binding at 10 μM (class): ^d (<30% inhibition of radioligand binding at 10 μM)
[4]; Table 2
  MOR, inhibition of radioligand binding at 10 μM (class): ^d (<30% inhibition of radioligand binding at 10 μM)
[2]
  Ki: > 10 µM
[3]
  DAT, inhibition, % of control at 10 μM: –196 ± 58%
[6]
  Ki: 1090 ± 320 nM

## CNC(=O)[C@@]12C[C@@H]1[C@@H](n1cnc3c(NC)nc(C#Cc4ccc(Br)s4)nc31)[C@H](O)[C@@H]2O [compound 15]
[1]; Table 1
  DOR, inhibition of radioligand binding at 10 μM (class): ^e (30–50% inhibition of radioligand binding at 10 μM)
[2]; Table 1
  TSPO, inhibition of radioligand binding at 10 μM (class): ^f (<30% inhibition of radioligand binding at 10 μM)
[3]
  DAT, inhibition, % of control at 10 μM: –235%
